Test [1] has as its system P. aeruginosa PAO1 (wild-type strain). In words: MIC broth microdilution, P. aeruginosa PAO1. It is filed as cell-based, Pseudomonas aeruginosa. The note with it: for MIC: Pseudomonas aeruginosa, PAO1, PMBN 0 µg/mL (absence of PMBN); for MIC (µM) against P. aeruginosa PAO1: wild-type strain, with 4 µg/mL PMBN. The source says: (§1) The results presented above implied that seven pyrrolidine-2,3-dione derivatives inhibited the activity of ^PaPBP3 in vitro. Consequently, we were very interested in investigating the potential of these compounds to affect the growth of P. aeruginosa. Two P. aeruginosa bacterial strains (the wild-type PAO1 and the isogenic ΔmexB ΔmexX ΔmexCD-oprJ efflux pump mutant) were used to determine the MIC and the potential role of the main P. aeruginosa efflux systems in compound uptake. To increase the antibacterial sensitivity of the tested P. aeruginosa isolates to the potential inhibitors, we performed MIC experiments in the presence and absence of a sub-MIC concentration (4 µg/mL) of the outer membrane permeabilising polymyxin B nonapeptide (PMBN). […] Thus, we concluded that the physicochemical properties of the pyrrolidine-2,3-dione compounds were perhaps not yet favourable enough to cross the P. aeruginosa cell envelope without a permeabiliser because of their high hydrophobicity.
(§2) The wild-type P.aeruginosa PAO1 and the isogenic P. aeruginosa K2896 ΔmexBΔmexXYΔmexCD-oprJ isolates were used to determine the MIC in the presence and absence of PMBN [48].
(§3) MIC determination was performed via standard broth microdilution according to the Clinical & Laboratory Standards institute guidelines. Overnight colonies grown on BD-Columbia agar with 5% Sheep Blood (Becton Dickinson, Franklin Lakes, NJ, USA), were diluted in Mueller Hinton Broth 2 cation adjusted (MH+) medium (Thermo Fisher Scientific) to a concentration of 5 × 10^5 CFU/mL. Serial dilutions (1:2) of test compounds were incubated at 37 °C with 5 × 10^4 bacteria in a final volume of 100 μL. Sterile and growth controls in the presence of 1% DMSO and PMBN if the case, and the positive controls, aztreonam (AZT) and tigecycline (TIG) were included in the experiments (Table S4). The MICs were determined visually after 18 h at 37 °C and confirmed by the addition of 10% PrestoBlue (ThermoFisher Scientific) reagent according to the manufacture’s protocol. The fluorescence signal of PrestoBlue reagent was measured at Ex/Em: 550/595 nm after 30 min incubation at 37 °C using at a ClarioStar microplate reader (BMG Labtech). PrestoBlue reduction occurs in the presence of living cells and consequently turns red in colour and is highly fluorescent.
(In general: Dilution methods test growth across graded concentrations, often in twofold steps.)

Test [2] relates to P. aeruginosa K2896 ΔmexBΔmexXYΔmexCD-oprJ. In words: MIC broth microdilution, P. aeruginosa K2896 efflux mutant. It is filed as cell-based, Pseudomonas aeruginosa. Conditions: for MIC: Pseudomonas aeruginosa, read-out: MIC (µM) P. aeruginosa K2896; for MIC (µM) against P. aeruginosa K28926: ΔmexB, ΔmexX, ΔmexCD-oprJ, with 4 µg/mL PMBN.
From the text: as §1, §2, §3

Test [3] deals with E. coli Neumann. In words: MIC broth microdilution, E. coli. It is filed as cell-based. Conditions: Escherichia coli; PMBN 0 µg/mL, control compounds; read-out: MIC (µM) E. coli Newmann. Here is the method: as §3
In test [4] the test system is K. pneumoniae clinical isolate. In words: MIC broth microdilution, K. pneumoniae. Conditions: control compounds. It is filed as cell-based. The method, then: as §3
The subject of test [5] is A. baumannii ATCC15308. In words: MIC broth microdilution, A. baumannii. It is filed as cell-based. Conditions: Acinetobacter baumannii, control compounds. Here is the method:
as §3

Test [6] has as its system S. pneumoniae. In words: MIC broth microdilution, S. pneumoniae. The class given is cell-based. The note with it: Streptococcus pneumoniae, 18 h; PMBN 0 µg/mL, control compounds; read-out: MIC (µM) S. pneumoniae. Here is the method:
as §3

The subject of test [7] is B. subtilis 168. In words: MIC broth microdilution, B. subtilis. It is filed as cell-based. The note with it: Bacillus subtilis, 168, 18 h; PMBN 0 µg/mL, control compounds. The method, then: as §3
For test [8], the system named is S. aureus 133. In words: MIC broth microdilution, S. aureus. The note with it: Staphylococcus aureus, 133, 18 h; PMBN 0 µg/mL, control compounds. The class given is cell-based. Here is the method: as §3

Values after ≈ are worked out from the molar mass of the structure shown.

One may read the MIC as the lowest concentration found to suppress growth. In the case of `C[C@H]1[C@H](NC(=O)/C(=N\OC(C)(C)C(=O)O)c2csc(N)n2)C(=O)N1S(=O)(=O)O` [Aztreonam, aztreonam, reference compound], the MIC in test [1] was > 1.2 µM; in test [2], 0.575 µM (≈ 0.25 µg/mL); in test [3] it was 0.287 µM (≈ 0.125 µg/mL); in test [4] (PMBN 0 µg/mL) it was 0.143 µM (≈ 0.0623 µg/mL); in test [4] (PMBN 50 µg/mL) it was 0.071 µM (≈ 0.0309 µg/mL); in test [5] (ATCC15308, PMBN 0 µg/mL), > 1.2 µM. The MIC was 0.58 µM (≈ 0.253 µg/mL) in test [5] (ATCC15308, PMBN 50 µg/mL); > 1.2 µM in test [6]; > 1.2 µM in test [7]; > 1.2 µM in test [8]. Besides, the “MIC (µM) against P. aeruginosa PAO1” value in test [1] is given as 0.58 µM (≈ 0.253 µg/mL). In test [2], the “MIC (µM) against P. aeruginosa K28926” value turned out to be 0.29 µM (≈ 0.126 µg/mL).
For the compound `CN(C)c1cc(NC(=O)CNC(C)(C)C)c(O)c2c1C[C@H]1C[C@H]3[C@H](N(C)C)C(O)=C(C(N)=O)C(=O)[C@@]3(O)C(O)=C1C2=O` [Tygecyclin, tigecycline, reference compound], the MIC was > 4 µM in test [1]; 0.8 µM (≈ 0.469 µg/mL) in test [2]; 0.4 µM (≈ 0.234 µg/mL) in test [3]; 0.9 µM (≈ 0.527 µg/mL) in test [4] (PMBN 0 µg/mL); 0.4 µM (≈ 0.234 µg/mL) in test [4] (PMBN 50 µg/mL); 0.9 µM (≈ 0.527 µg/mL) in test [5] (ATCC15308, PMBN 0 µg/mL). Further, the MIC in test [5] (ATCC15308, PMBN 50 µg/mL) turned out to be 0.4 µM (≈ 0.234 µg/mL); in test [6], 0.1 µM (≈ 0.0586 µg/mL); in test [7], 0.2 µM (≈ 0.117 µg/mL); in test [8] it was 0.2 µM (≈ 0.117 µg/mL). The “MIC (µM) against P. aeruginosa PAO1” value in test [1] was found to be 0.4 µM (≈ 0.234 µg/mL). In addition, in test [2], the “MIC (µM) against P. aeruginosa K28926” value was 0.2 µM (≈ 0.117 µg/mL).

The record behind these values is publication PMC8147781, “Discovery of Pyrrolidine-2,3-diones as Novel Inhibitors of P. aeruginosa PBP3” (Antibiotics, 2021).
